# From US9073935B2, “Substituted benzylspiroindolin-2-one analogs as positive allosteric modulators of the muscarinic acetylcholine receptor M1” (VANDERBILT UNIVERSITY, priority 2011, dated 2015)
# Biological target: T1, mAChR M1 (UniProt P11229)
# T1 sequence (P11229 1-460): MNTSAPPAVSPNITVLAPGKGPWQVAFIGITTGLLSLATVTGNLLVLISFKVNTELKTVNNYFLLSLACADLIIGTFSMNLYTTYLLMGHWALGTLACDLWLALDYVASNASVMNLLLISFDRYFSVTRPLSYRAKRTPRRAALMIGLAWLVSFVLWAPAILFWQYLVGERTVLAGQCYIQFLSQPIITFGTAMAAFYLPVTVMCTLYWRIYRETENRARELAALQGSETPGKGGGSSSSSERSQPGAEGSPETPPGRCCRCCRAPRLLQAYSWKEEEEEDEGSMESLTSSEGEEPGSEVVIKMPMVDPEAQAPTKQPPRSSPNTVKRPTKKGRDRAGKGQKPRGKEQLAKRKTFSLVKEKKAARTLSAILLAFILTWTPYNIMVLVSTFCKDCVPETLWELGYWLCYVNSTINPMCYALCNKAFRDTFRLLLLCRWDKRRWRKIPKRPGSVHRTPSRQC
# Test: mAChR M1 cell-based functional assay (calcium mobilization, potentiation of EC20 acetylcholine response)
# Settings: for Emax: % ACh maximum at 30 μM; for EC50: CHO-K1 cells expressing mAChR M1, increase in EC20 acetylcholine response, >10 μM estimated where no plateau in the curve
# Description: Chinese hamster ovary (CHO-K1) cells stably expressing rat (r)M1 were purchased from the American Type Culture Collection and cultured according to their indicated protocol. […] To make stable rM2, hM2, rM3, hM4, and rM4 cell lines for use in calcium mobilization assays, these cells also were stably transfected with a chimeric G-protein (Gqi5) (provided by B. R. Conklin, University of California, San Francisco) using Lipofectamine 2000. rM1, hM1, rM3, hM3, rM5, and hM5 cells were grown in Ham's F-12 medium containing 10% heat-inactivated fetal bovine serum (FBS), 20 mM HEPES, and 50 μg/mL G418 sulfate. rM2-Gqi5, hM2-Gqi5, and hM4-Gqi5 cells were grown in the same medium also containing 500 μg/mL Hygromycin B. Stable rM4-Gqi5 cells were grown in DMEM containing 10% heat-inactivated FBS, 20 mM HEPES, 400 μg/mL G418 sulfate, and 500 μg/mL Hygromycin B.
# For high throughput measurement of agonist-evoked increases in intracellular calcium, CHO-K1 cells stably expressing muscarinic receptors were plated in growth medium lacking G418 and hygromycin at 15,000 cells/20 μL/well in Greiner 384-well black-walled, tissue culture (TC)-treated, clear-bottom plates (VWR). Cells were incubated overnight at 37° C. and 5% CO2. […] Compound master plates were formatted in an 11 point CRC format (1:3 dilutions) in 100% DMSO with a starting concentration of 10 mM using the BRAVO liquid handler (Agilent). Test compound CRCs were then transferred to daughter plates ([…]) using the Echo acoustic plate reformatter (Labcyte, Sunnyvale, Calif.) and then diluted into assay buffer (40 μL) to a 2× stock using a Thermo Fisher Combi (Thermo Fisher Scientific, Waltham, Mass.).
# Calcium flux was measured using the Functional Drug Screening System (FDSS) 6000 (Hamamatsu Corporation, Tokyo, Japan) as an increase in the fluorescent static ratio. Compounds were applied to cells (20 μL, 2×) using the automated system of the FDSS 6000 at 4 s into the 300 s protocol and the data were collected at 1 Hz. […] Agonist activity was analyzed as a concentration-dependent increase in calcium mobilization upon compound addition. Positive allosteric modulator activity was analyzed as a concentration-dependent increase in the EC20 acetylcholine response. Antagonist activity was analyzed as a concentration-dependent decrease in the EC80 acetylcholine response. Concentration-response curves were generated using a four-parameter logistical equation in XLfit curve fitting software (IDBS, Bridgewater, N.J.) for Excel (Microsoft, Redmond, Wash.) or Prism (GraphPad Software, Inc., San Diego, Calif.).
# The calcium mobilization assay was also used to determine “efficacy”. In the context of the assays carried out for the data in Table II, “efficacy” (% ACh at 30 μM) is defined as the maximal response in the calcium flux as determined by the sigmoidal curve fit of the concentration response curve, or in the absence of an acceptable curve fit, the response recorded at 30 μM test compound, stated as a percentage of the response elicited by a concentration of Ach that induces approximately 80% of a maximal (i.e. saturating) ACh response.
# Substituted benzylspiroindolin-2-one analogs were synthesized as described above. Activity (EC50 and Emax) was determined in the mAChR M1 cell-based functional assay as described above and the data are shown in Table III. The compound number corresponds to the compound numbers used in Tables I and II.
SMILES,Emax [%],EC50 [µM]
Cn1cc(-c2ccc(CN3C(=O)C4(CCN(C5CCCC5)C4)c4ccccc43)cc2)cn1 (stereo not drawn) [Compound B1],43,1.3
CC1CCCCC1N1CCC2(C1)C(=O)N(Cc1ccc(-c3cnn(C)c3)cc1F)c1ccccc12 (stereo not drawn) [Compound B60],39,> 10
CN1CCC2(CC1)C(=O)N(Cc1ccc(-c3cnn(C)c3)cc1F)c1ccccc12 [Compound B36],48,4
